Results: patent US20050142531A1, “Peptidically buffered formulations for electrotransport applications and methods of making” (priority 2003, published 2005)
≈ marks a conversion by molar mass, not a printed value. Structures can show the parent of a compound that is named as a salt. Peptide text beside a SMILES is read from it.

Assays:
[1] = cited from earlier work
[2] = Conductivities and solubilities of selected multipeptides at their pI; type: physicochemical; conditions: for pI: Table 1; for Solubility: at pI
Source text: Table 1 lists conductivities and solubilities of selected multipeptides useful in the present invention, at their pI. The pH buffering capacity of the peptidic buffers of the present invention can be explained by using Gly-His at pH 7.5 as an example (the pI of Gly-His is 7.55). At this pH, the net charge of the molecule is essentially zero. At the pI, three species coexist. The bulk of the molecule (70%) consists of the neutral species that bears two internal charges, one positive and one negative resulting in a net charge of zero. […] Although there are small percentages of species presenting a net positive or negative charge in solution, there is minimal ionic transport of these charged species due to charge equilibrium between the three species (i.e., a positive charge migrating in the electric field will revert almost instantly to its neutral form and lose momentum or to its negative form and migrate backward). Thus, there is little if any ionic transport of the charged peptides into the systemic circulation of the patient. Due to the same principle of charge equilibrium, any depletion of the charged molecules will be compensated immediately by dissociation of the neutral form to its charged species thereby providing a reservoir insuring long term pH stability. In addition, if loss of the molecule occurs by electroosmosis of the neutral species, this will not result in any pH changes.

[3] = pKa, pI and % salt of peptidic buffers; type: physicochemical

Row | pI [2] | Solubility [2] [mM] | pka A (acidic pKa) ([3]; Table 2, first acidic pKa) | pka B (basic pKa) ([3]; Table 2, first basic pKa) | pka A (acidic pKa) ([3]; Table 2, second acidic pKa) | pka B (basic pKa) ([3]; Table 2, second basic pKa) | Structure (SMILES) | pKa (first value) ([1]; first listed) | pKa (second value) ([1]; second listed) | pKa (third value) ([1]; third listed) | pKa (amine) ([1]; amine) | pKa (carboxylic) ([1]; carboxylic) | pKa (enolic OH) ([1]; enolic OH)
1 | – | – | – | – | – | – | CO/N=C(\C(=O)N[C@@H]1C(=O)N2C(C(=O)O)=C(CSc3nc(C)c(CC(=O)O)s3)CS[C@H]12)c1csc(N)n1 [Cefodizime disodium salt] | 2.85 | 3.37 | 4.18 | – | – | –
2 | 7.55 | 1000 (≈ 212 mg/mL) | 2.42 | 6.71 | – | 8.39 | NCC(=O)N[C@@H](Cc1c[nH]cn1)C(=O)O [Gly-His] (H-Gly-His-OH; N-terminus and C-terminus assumed) | – | – | – | – | – | –
3 | 5.22 | 50 (≈ 13.5 mg/mL) | 2.28 | 6.45 | 3.99 | 8.19 | N[C@@H](Cc1c[nH]cn1)C(=O)N[C@@H](CC(=O)O)C(=O)O [His-Asp] (H-His-Asp-OH; N-terminus and C-terminus assumed) | – | – | – | – | – | –
4 | 5.20 | 400 (≈ 114 mg/mL) | 2.30 | 6.32 | 4.19 | 8.07 | N[C@@H](Cc1c[nH]cn1)C(=O)N[C@@H](CCC(=O)O)C(=O)O [His-Glu] (H-His-Glu-OH; N-terminus and C-terminus assumed) | – | – | – | – | – | –
5 | 6.90 | 1000 (≈ 212 mg/mL) | 2.41 | 5.90 | – | 7.91 | N[C@@H](Cc1c[nH]cn1)C(=O)NCC(=O)O [His-Gly] (H-His-Gly-OH; N-terminus and C-terminus assumed) | – | – | – | – | – | –
6 | – | – | 2.42 | 6.71 | – | 9.10 | O=C(O)[C@H](Cc1c[nH]cn1)NC(=O)[C@@H]1CCCN1 [Pro-His] | – | – | – | – | – | –
7 | – | – | 2.42 | 6.71 | – | 7.70 | N[C@@H](CO)C(=O)N[C@@H](Cc1c[nH]cn1)C(=O)O [Ser-His] (H-Ser-His-OH; N-terminus and C-terminus assumed) | – | – | – | – | – | –
8 | – | – | 2.42 | 6.71 | – | 7.60 | C[C@@H](O)[C@H](N)C(=O)N[C@@H](Cc1c[nH]cn1)C(=O)O [Thr-His] (H-Thr-His-OH; N-terminus and C-terminus assumed) | – | – | – | – | – | –
9 | – | – | 2.42 | 6.71 | – | 7.90 | N[C@@H](Cc1c[nH]c2ccccc12)C(=O)N[C@@H](Cc1c[nH]cn1)C(=O)O [Trp-His] (H-Trp-His-OH; N-terminus and C-terminus assumed) | – | – | – | – | – | –
10 | – | – | 2.64 | 7.39 | 9.36 | 11.62 | N=C(N)NCCC[C@H](NC(=O)[C@@H](N)Cc1ccc(O)cc1)C(=O)O [Tyr-Arg] | – | – | – | – | – | –
11 | – | – | 2.42 | 6.71 | 9.90 | 7.60 | N[C@@H](Cc1ccc(O)cc1)C(=O)N[C@@H](Cc1c[nH]cn1)C(=O)O [Tyr-His] (H-Tyr-His-OH; N-terminus and C-terminus assumed) | – | – | – | – | – | –
12 | 7.38 | 200 (≈ 50.9 mg/mL) | 3.09 | 6.83 | – | 7.94 | CC(C)[C@H](N)C(=O)N[C@@H](Cc1c[nH]cn1)C(=O)O [Val-His] (H-Val-His-OH; N-terminus and C-terminus assumed) | – | – | – | – | – | –
13 | – | – | – | – | – | – | CO/N=C(\C(=O)N[C@@H]1C(=O)N2C(C(=O)O)=C(CSc3nc(=O)c(=O)[nH]n3C)CS[C@H]12)c1csc(N)n1 [ceftriaxone] | – | – | – | 3.2 | 3 | 4.1

Row | Structure (SMILES) | pI [2] | Solubility [2] [mM] | pka A (acidic pKa) ([3]; Table 2, first acidic pKa) | pka B (basic pKa) ([3]; Table 2, first basic pKa) | pka A (acidic pKa) ([3]; Table 2, second acidic pKa) | pka B (basic pKa) ([3]; Table 2, second basic pKa) | pKa (first value) ([1]; first listed) | pKa (second value) ([1]; second listed) | pKa (third value) ([1]; third listed) | pKa (amine) ([1]; amine) | pKa (carboxylic) ([1]; carboxylic) | pKa (enolic OH) ([1]; enolic OH)
14 | NCCCC[C@H](NC(=O)[C@@H](N)CCC(=O)O)C(=O)O [Glu-Lys] (H-Glu-Lys-OH; N-terminus and C-terminus assumed) | 6.00 | 1000 (≈ 275 mg/mL) | 2.85 | 7.94 | 4.01 | 11.07 | – | – | – | – | – | –
15 | C[C@H](NC(=O)[C@@H](N)Cc1c[nH]cn1)C(=O)O [His-Ala] (H-His-Ala-OH; N-terminus and C-terminus assumed) | 6.95 | 500 (≈ 113 mg/mL) | 2.48 | 6.10 | – | 7.80 | – | – | – | – | – | –
16 | NCCCC[C@H](N)C(=O)N[C@@H](CC(=O)O)C(=O)O [Lys-Asp] (H-Lys-Asp-OH; N-terminus and C-terminus assumed) | 6.08 | 1000 (≈ 261 mg/mL) | 2.64 | 8.05 | 4.10 | 11.20 | – | – | – | – | – | –
17 | NCCCC[C@H](N)C(=O)N[C@@H](CCC(=O)O)C(=O)O [Lys-Glu] (H-Lys-Glu-OH; N-terminus and C-terminus assumed) | 6.06 | 500 (≈ 138 mg/mL) | 2.74 | 7.92 | 4.18 | 11.12 | – | – | – | – | – | –
